This is an account of results in patent US9169223B2, “Functionalised antifouling compounds and use thereof” (Agency for Science, Technology and Research, priority 2010, dated 2015).

Series [1] has as its system stage II naupliar larvae of the barnacle Amphibalanus amphitrite. The series can be described thus: Toxicity assay with barnacle nauplii. Type of series: in vivo. Here is the method: Biological assays were conducted with larval barnacles. Barnacles are dominant and tenacious members of marine fouling communities, and often serve as a substrate for less resistant organisms. Therefore, historically they have been used as a model organism for antifouling studies. To determine the biological response of larvae to test compounds, two bioassays were performed: settlement (using settlement stage cyprids), and toxicity (using nauplii). Procedures followed methods standard in the field, which were first described by Rittschof et al. (1992).
(§1) Stock solutions of each compound were made at 50 mg/ml. Pure compounds were diluted in DMSO and sonicated. Stock solutions were stored at −20° C. in 4 ml amber screw cap vials until use. For bioassays, a small amount of stock solution was diluted in 1 μm filtered seawater (in a glass scintillation vial). The solution was then sonicated for 10 minutes. To obtain the desired concentration range, serial dilutions of the test solution were made. As control, a serial dilution of the equivalent amounts of DMSO in seawater was used.
Toxicity assays employed stage II naupliar larvae of the barnacle Amphibalanus amphitrite (previously Balanus amphitrite: Pitombo, 2004). Assay procedures were modified from Rittschof et al. (1992). Adult A. amphitrite were collected from inter-tidal areas near the Kranji mangrove, Singapore. Larval culture was based on Rittschof et al. (1984). Following collection, nauplii were concentrated for use in bioassays by placing a fiber optic light source at one side of the container, and pipetting from the resulting dense cloud of nauplii.
In order to determine LD50 values for each compound, compounds were tested over a range of concentrations between 0-50 μg/ml. For each assay, each compound at each concentration was tested in triplicate with a single batch of nauplii. The overall assay was conducted twice, using two different batches of nauplii. Two controls were run along with each assay (in triplicate): filtered seawater only, and DMSO at […] (since DMSO was used as a solvent for test compounds, this concentration is equivalent to the concentration of DMSO in the highest test compound concentration).
For assays, approximately 20 nauplii (in 50 μl filtered seawater) were added to 1 ml test solution or control, in a 2 ml glass vial (La Pha Pack® PN 11-14-0544). Assays were run for 22-24 hours at 25-27° C. After this time, living and dead nauplii were counted using a Bogorov tray. Nauplii that were approaching death were scored as dead. Data for all assays was combined and LD50 was calculated (where possible) using a probit analysis (Libermann, 1983). If LD50 could not be calculated using probit analysis, values were extrapolated based on plotted data.

The subject of a further series is barnacle cyprids. The experiment in a line: Settlement assay with barnacle cyprids. To be noted: for IC50: Amphibalanus amphitrite, 24 h; for TR (LD50/ED50): therapeutic ratio, LD50 (nauplii) / ED50 (cyprids). Type of series: in vivo, Amphibalanus amphitrite. As to the method: Biological assays were conducted with larval barnacles. Barnacles are dominant and tenacious members of marine fouling communities, and often serve as a substrate for less resistant organisms. Therefore, historically they have been used as a model organism for antifouling studies. To determine the biological response of larvae to test compounds, two bioassays were performed: settlement (using settlement stage cyprids), and toxicity (using nauplii).
as §1
Nauplii were cultured as described above, and then reared at 25° C. on an algal mixture of 1:1 v/v of Tetraselmis suecica and Chaetoceros muelleri (approximately density 5×10^5 cells per ml). Under these conditions, nauplii typically metamorphose to cyprids in 5 days. Cyprids were aged at 4° C. for 2 days.
Settlement assays were conducted in 7 ml neutral glass vials (Samco® T103/V1; 34×23 mm diameter). For assays, each solution was made at twice the desired final concentration; 0.5 ml of this solution was transferred to vials. To each vial, cyprids were added by transferring 0.5 ml filtered seawater containing 20-40 aged cyprids. As in toxicity assays: each compound at each concentration was run in triplicate with cyprids from a single batch; two controls (filtered seawater and DMSO) were run along with each assays; and the overall assay was conducted twice, using two different batches of cyprids.
Assays were conducted for 24 hours, after which time the number of settled cyprids, the number of free swimming (unsettled) cyprids, and the number of dead cyprids were counted for each vial. Both metamorphosed, juvenile barnacles and cyprids that had committed to settlement (glued themselves to the vial), but had not yet metamorphosed, were counted as ‘settled’. Data was expressed as percent settlement. […] If ED50 could not be calculated using probit analysis, values were extrapolated based on plotted data.

[2] abbreviates: Amphibalanus amphitrite (barnacle), stage II naupliar larvae, in vivo.
The mark [3] stands for this setting: anti-settlement, barnacle cyprids, 24 hours, concentration causing 50% reduction in settlement vs controls, read-out: ED50 (the source's name).
[4] abbreviates: anti-settlement, barnacle cyprids, 24 hours, concentration causing 50% reduction in settlement vs controls.

Values after ≈ are worked out from the molar mass of the structure shown. Where two headings read alike, the source gives them in different places.

As for `CCCCC(CCCC)C(=O)N1CCCCC1` [Compound 12.2, reference compound], in series [1] (setting [2]), the LD50 stood at 9.83 µg/mL. The IC50 with barnacle cyprids (setting [3]) was found to be 2 µg/mL (≈ 8.35 µM). In addition, the “TR (LD50/ED50)” value in the series with barnacle cyprids stood at 4.92.
The corresponding values for `CCCCC(C(=O)N1CCCCC1)c1ccccc1OC` (centres unmarked) [Compound 15.3] are 3.67 µg/mL, 2.85 µg/mL (≈ 9.85 µM) and 1.29.
For the compound `CCCCC(C(=O)N1CCCCC1)c1ccc(OCC[Si](C)(C)C)cc1` (centres unmarked) [Compound 16.10, 1-(piperidin-1-yl)-2-(4-(2-(trimethylsilyl)ethoxy)phenyl)hexan-1-one], the LD50 in series [1] (toxicity, barnacle nauplii, 22-24 hours, 0-50 μg/ml) is more than 50 µg/mL. Moreover, the IC50 with barnacle cyprids (read-out: ED50) turned out to be 3.49 µg/mL (≈ 9.29 µM). Moreover, the “TR (LD50/ED50)” value in the series on barnacle cyprids is more than 14.33.
`CCCCC(C(=O)N1CCCCC1)c1ccc(O)cc1` (centres unmarked) [Compound 16.5, 2-(4-hydroxyphenyl)-1-(piperidin-1-yl)hexan-1-one] registered an LD50 in series [1] (setting [2]) of 17.15 µg/mL. Besides, the IC50 with barnacle cyprids (setting [3]) was 0.19 µg/mL (≈ 0.69 µM). Also, the “TR (LD50/ED50)” value with barnacle cyprids was determined as 90.26.
In the same order, the values of `C=CCCCCC(C(=O)N1CCCCC1)c1ccc(O)cc1` (centres unmarked) [Compound 17.6, 2-(4-hydroxyphenyl)-1-(piperidin-1-yl)oct-7-en-1-one] are 9.82 µg/mL, 2.14 µg/mL (≈ 7.1 µM) and 4.59.
In series [1] (setting [2]), `CCCCC(C(=O)N(C)C)c1ccc(O)cc1` (centres unmarked) [Compound 17.7, 2-(4-hydroxyphenyl)-N,N-dimethylhexanamide] gave an LD50 of more than 50 µg/mL. The IC50 in the series with barnacle cyprids (setting [3]) stood at 34.1 µg/mL (≈ 145 µM). For the same compound, in the series on barnacle cyprids, the “TR (LD50/ED50)” value is listed as more than 1.46.
For `CCCCC(C(=O)N1CCCCC1)c1ccccc1` (centres unmarked) [Compound 12.1, reference compound], the LD50 in series [1] (setting [2]) came to 9.11 µg/mL. Also, the IC50 in the series with barnacle cyprids (setting [3]) is 1.5 µg/mL (≈ 5.78 µM). Further, the “TR (LD50/ED50)” value in the series with barnacle cyprids amounted to 6.07.
In the case of `CCCCC(C(=O)N(C)C)c1ccc(OC)cc1` (centres unmarked) [Compound 17.2, 2-(4-methoxyphenyl)-N,N-dimethylhexanamide], in series [1] (setting [2]), the LD50 is more than 50 µg/mL. The IC50 with barnacle cyprids (setting [3]) amounted to 8.69 µg/mL (≈ 34.9 µM). Moreover, the “TR (LD50/ED50)” value in the series with barnacle cyprids was more than 5.75.
The corresponding values for `C=CCCCCC(C(=O)N(C)C)c1ccc(OC)cc1` (centres unmarked) [Compound 17.3, 2-(4-methoxyphenyl)-N,N-dimethyloct-7-enamide] are 18.61 µg/mL, 2.85 µg/mL (≈ 10.3 µM) and 6.53.
Turning to `CCCCC(C(=O)N1CCCCC1)c1ccc(OCC(=O)O)cc1` (centres unmarked) [Compound 16.9, 2-(4-(1-oxo-1-(piperidin-1-yl)hexan-2-yl)phenoxy)acetic acid], in series [1] (setting [2]), the LD50 was more than 50 µg/mL. The IC50 with barnacle cyprids (setting [3]) was more than 50 µg/mL.
In turn, `CCCCC(C(=O)N1CCCCC1)c1ccc(C(=O)O)cc1` (centres unmarked) [Compound 17.9, 4-(1-oxo-1-(piperidin-1-yl)hexan-2-yl)benzoic acid] registered an LD50 in series [1] (setting [2]) of more than 50 µg/mL. Further, in the series with barnacle cyprids (setting [3]), the IC50 is more than 50 µg/mL. In addition, the “TR (LD50/ED50)” value in the series on barnacle cyprids was determined as 1.
In series [1] (setting [2]), `CCCCC(C(=O)N1CCCCC1)c1cc(OC)cc(OC)c1` (centres unmarked) [Compound 15.4] had an LD50 of 8.22 µg/mL. Besides, in the series on barnacle cyprids (setting [3]), the IC50 is 3.29 µg/mL (≈ 10.3 µM). In addition, the “TR (LD50/ED50)” value with barnacle cyprids was determined as 2.5.
In the same order, the values of `CCCCC(C(=O)N1CCCCC1)c1ccc(OC)cc1` (centres unmarked) [Compound 15.1, 2-(4-methoxy)phenyl-(1-piperidin-1-yl)hexanone] are 22.95 µg/mL, 0.19 µg/mL (≈ 0.656 µM) and 120.79.
In the same order, the values of `CCCCC(C(=O)N1CCCCC1)c1ccc(OC(C)=O)cc1` (centres unmarked) [Compound 16.4, 4-(1-oxo-1-(piperidin-1-yl)hexan-2-yl)phenyl acetate] are 27.2 µg/mL, 0.23 µg/mL and 118.26.
In the same order, the values of `C=CCCCCC(C(=O)N1CCCCC1)c1ccc(OC)cc1` (centres unmarked) [Compound 17.1, 2-(4-methoxyoxyphenyl)-1-(piperidin-1-yl)oct-7-en-1-one] are 9.27 µg/mL, 2.37 µg/mL (≈ 7.51 µM) and 3.91.
`CCCCC(C(=O)N1CCCCC1)c1ccc(OCCO)cc1` (centres unmarked) [Compound 16.6, 2-(4-(2-hydroxyethoxy)phenyl)-1-(piperidin-1-yl)hexan-1-one] showed an LD50 in series [1] (setting [2]) of more than 50 µg/mL. The IC50 in the series on barnacle cyprids (setting [3]) is 9.25 µg/mL (≈ 29 µM). For the same compound, the “TR (LD50/ED50)” value in the series with barnacle cyprids is listed as more than 5.41.
`CCCCC(C(=O)N1CCCCC1)c1cccc(OC)c1` (centres unmarked) [Compound 15.2] registered an LD50 in series [1] (setting [2]) of more than 25 µg/mL. In the series on barnacle cyprids (setting [3]), the IC50 is 1.46 µg/mL (≈ 5.04 µM). Besides, the “TR (LD50/ED50)” value in the series on barnacle cyprids was more than 17.12.
In series [1] (setting [2]), `CCCCC(C(=O)N1CCCCC1)c1cc(OC)ccc1OC` (centres unmarked) [Compound 15.5] showed an LD50 of 8.66 µg/mL. Further, the IC50 with barnacle cyprids (setting [3]) stood at 2.16 µg/mL (≈ 6.76 µM). Also, the “TR (LD50/ED50)” value with barnacle cyprids came out at 4.01.
The corresponding values for `C=CCCCCC(C(=O)N(C)C)c1ccc(O)cc1` (centres unmarked) [Compound 17.8, 2-(4-hydroxyphenyl)-N,N-dimethyloct-7-enamide] are 12.46 µg/mL, 4.29 µg/mL (≈ 16.4 µM) and 2.90.
In the same order, the values of `CCCCC(C(=O)N1CCCCC1)c1cccc(O)c1` (centres unmarked) [Compound 17.5] are 25.14 µg/mL, 3.44 µg/mL (≈ 12.5 µM) and 7.31.
In the case of `CCCCC(C(=O)N1CCCCC1)c1ccc(OC)cc1OC` (single isomer, unassigned) [Compound 15.6], the LD50 in series [1] (setting [2]) came to 33.21 µg/mL. Also, the ED50 in the series on barnacle cyprids (setting [4]) came out at 9.12 µg/mL (≈ 28.5 µM). Also, the “TR (LD50/ED50)” value with barnacle cyprids came to 3.64.
Regarding `CCCCC(C(=O)N1CCCCC1)c1ccc(OCCOC(C)=O)cc1` (centres unmarked) [Compound 16.8, 2-(4-(1-oxo-1-(piperidin-1-yl)hexan-2-yl)phenoxy)ethyl acetate], in series [1] (setting [2]), the LD50 is more than 50 µg/mL. Besides, the IC50 in the series on barnacle cyprids (setting [3]) came out at 29.1 µg/mL. Also, in the series with barnacle cyprids, the “TR (LD50/ED50)” value is on record as 1.72.
In series [1] (setting [2]), `CCCCC(C(=O)N1CCCCC1)c1ccccc1CO` (single isomer, unassigned) [Compound 16.1] came in with an LD50 of more than 50 µg/mL. In addition, the ED50 in the series with barnacle cyprids (setting [4]) came out at 4.11 µg/mL (≈ 14.2 µM). In addition, the “TR (LD50/ED50)” value with barnacle cyprids was more than 12.17.
The compound `CCCCC(C(=O)N1CCCCC1)c1ccc(OCC(=O)OC)cc1` (centres unmarked) [Compound 16.7, Methyl 2-(4-(1-oxo-1-(piperidin-1-yl)hexan-2-yl)phenoxy)acetate] came in with an LD50 in series [1] (setting [2]) of 24.58 µg/mL. Besides, in the series with barnacle cyprids (setting [3]), the IC50 came out at 26.9 µg/mL (≈ 77.4 µM). In addition, the “TR (LD50/ED50)” value in the series with barnacle cyprids is 0.91.
`C=CC(=O)Oc1ccc(C(CCCC)C(=O)N2CCCCC2)cc1` (centres unmarked) [Compound 16.11, 4-(1-oxo-1-(piperidin-1-yl)hexan-2-yl)phenyl acrylate]: in series [1] (setting [2]), the LD50 was 6.57 µg/mL. For the same compound, the IC50 in the series with barnacle cyprids (setting [3]) was determined as 1.53 µg/mL (≈ 4.64 µM). For the same compound, in the series on barnacle cyprids, the “TR (LD50/ED50)” value was found to be 4.29.
The corresponding values for `CCCCC(C(=O)N1CCCCC1)c1ccccc1O` (centres unmarked) [Compound 17.4] are 14.62 µg/mL, 0.65 µg/mL (≈ 2.36 µM) and 22.49.
